Measurements reported in ChEMBL document CHEMBL1136416, “Identification of a stable chymase inhibitor using a pharmacophore-Based database search” (Bioorg Med Chem Lett, 2003).
Several values for one entry are separate records, joined by “and”; a condition that tells them apart may be missing. Identical values can stand only once.

How the values were obtained:
Chymase (Homo sapiens) [1] = target: T1, Chymase (Homo sapiens) (UniProt P23946); experiment: Inhibitory activity against serine protease chymase was determined
T1 sequence (whole entry): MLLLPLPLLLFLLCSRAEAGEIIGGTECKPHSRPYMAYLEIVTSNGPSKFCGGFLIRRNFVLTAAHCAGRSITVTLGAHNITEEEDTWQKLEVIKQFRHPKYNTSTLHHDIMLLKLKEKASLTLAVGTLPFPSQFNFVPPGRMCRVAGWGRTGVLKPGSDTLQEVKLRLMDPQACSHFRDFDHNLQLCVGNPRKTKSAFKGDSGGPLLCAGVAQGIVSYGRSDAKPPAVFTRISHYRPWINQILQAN

Chymase (Homo sapiens) [2] = target: T1, Chymase (Homo sapiens); experiment: Inhibitory activity against serine protease chymase was determined at 1 uM
[3] = Percent compound remaining in human plasma after incubation for 60 min at 37 C.; format: ADME, cell-free; settings: read-out: Stability
[4] = Percent remaining in human plasma after incubation for 60 min at 37 C.; format: ADME, cell-free; settings: read-out: Stability
Chymase = target: T2, Chymase (Homo sapiens, UniProt P23946); experiment: Inhibitory concentration against serine protease chymase was determined
T2 sequence (P23946 whole entry): T1 sequence (whole entry)

Row | Compound | Inhibitory activity (Chymase (Homo sapiens) [1]) | other results
1 | O=C(Oc1ccc(Cl)cc1)c1cnc(C2COc3ccccc3O2)s1 (centres undefined) |  | inhibition (Chymase (Homo sapiens) [2]): > 30%; inhibition (Chymase (Homo sapiens) [1]; concentration not given here): 17.8%; remaining at 1 h [3]: 11.8%
2 | Cc1ccc(C(=O)Nc2nnc(C(=O)c3ccccc3)s2)cc1 | 75 µM | 
3 | O=C(Nc1nnc(Sc2nc3ccccc3s2)s1)c1ccccc1 | 1.34 µM | 
4 | O=C(Nc1nnc(SCc2nc3ccccc3s2)s1)c1ccc(Cl)cc1 | 27 µM | 
5 | O=c1n(S(=O)(=O)c2ccc3ccccc3c2)c2ccccc2n1S(=O)(=O)c1ccc2ccccc2c1 | 3.46 µM | 
6 | O=C(Nc1nnc(Sc2nc3ccccc3s2)s1)C(Cl)(Cl)Cl | 14 µM | 
7 | CSc1[nH]nc(NC(=O)c2ccc(Cl)cc2)c1S(=O)(=O)c1ccc(Cl)cc1 |  | inhibition (Chymase (Homo sapiens) [2]): 36.5% and > 30%; remaining at 1 h [4]: 6.4%
8 | Clc1ccc(CNc2nnc(Sc3nc4ccccc4s3)s2)cc1 | 321 µM | 
9 | Cc1ccc(-c2nnc(NC(=O)c3ccc4ccccc4c3)s2)o1 | 87 µM | 
10 | O=C(Nc1nnc(Sc2nc3ccccc3s2)s1)c1ccc(Cl)cc1 | 0.308 µM | 
11 | Cc1ccc(C(=O)Sc2nnc(SC(=O)c3ccc(C)cc3)s2)cc1 | 3.24 µM | 
12 | CCCS(=O)(=O)c1ccc(NS(=O)(=O)c2sc3ccc(Cl)cc3c2C)cc1 |  | IC50 (Chymase): 0.909 µM; inhibition (Chymase (Homo sapiens) [2]): > 30%; remaining at 1 h [3]: 100%
13 | Cc1ccc(C(=O)Nc2nnc(SC(=O)c3ccc(C)cc3)s2)cc1 | 48 µM | 

Continued, in another order:

Row | Inhibitory activity (Chymase (Homo sapiens) [1]) | Compound | other results
14 | 0.097 µM | Cc1ccc(/C=C2\SC(=O)N(C(=O)c3ccc4ccccc4c3)C2=O)o1 | 
15 | 24 µM | Cc1ccc(/C=C2\SC(=O)N(CS(=O)(=O)c3ccc4ccccc4c3)C2=O)o1 | 
16 | 4.54 µM | Cc1ccc(/C=C2\SCCN(C(=O)c3ccc4ccccc4c3)C2=O)o1 | 
17 | 608 µM | O=C1ON(S(=O)(=O)c2ccc3ccccc3c2)C(=O)/C1=C/c1ccc(F)cc1 | 
18 | 141 µM | Cc1ccc(/C=C2\SC(=O)N(CSc3ccc4ccccc4c3)C2=O)o1 | 
19 | 8.91 µM | Cc1ccc(/C=C2\SC(C)(C)N(C(=O)c3ccc4ccccc4c3)C2=O)o1 | 
20 | 190 µM | Cc1ccc(/C=C2\SC(=O)N(Cc3ccc4ccccc4c3)C2=O)o1 | 
21 | 53 µM | O=C1ON(C(=O)c2ccc3ccccc3c2)C(=O)/C1=C/c1ccc(O)c(O)c1 | 
22 | 0.683 µM | Cc1ccc(/C=C2\SC(=O)N(C(=O)c3cccc(-c4ccccc4)c3)C2=O)o1 | 
23 | 3.6 µM | O=C(Oc1ccccc1)N1C(=O)S/C(=C\c2ccco2)C1=O | 
24 | 0.61 µM | COC(=O)c1ccc(C(=O)n2cnc3cc4ccccc4cc3c2=O)cc1 | 
25 | 273 µM | O=C1SC(Cc2ccc3ccccc3c2)C(=O)N1Cc1ccoc1 (centres undefined) | 
26 | 0.081 µM | O=C1S/C(=C\c2ccsc2)C(=O)N1C(=O)c1ccc2ccccc2c1 | 
27 | 176 µM | O=C1c2ccccc2C(=O)N1S(=O)(=O)c1ccc2ccccc2c1 | 
28 | 4.22 µM | COC(=O)C(c1ccc2ccccc2c1)N1C(=O)S/C(=C\c2ccc(C)o2)C1=O (centres undefined) | 
29 | 0.691 µM | O=C1S/C(=C/c2ccc(O)cc2)C(=O)N1S(=O)(=O)c1ccc2ccccc2c1 | 
